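Each compound was tested at five concentrations against cells in 96-well plates for 48 hours. Abbreviation: GI50, concentration required for 50% inhibition of growth. The concentration for full growth arrest is given as TGI.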
Assays:
Assay in all cases: NCI tumour cell line growth inhibition, 48 h; in the data active means GI50 below about 0.43 µM; inactive means the rest
NCI-H522 lung = tested on: NCI-H522 lung
HS 578T breast = tested on: HS 578T breast
HT29 colon = tested on: HT29 colon
T-47D breast = tested on: T-47D breast
UACC-62 melanoma = tested on: UACC-62 melanoma
OVCAR-8 ovarian = tested on: OVCAR-8 ovarian
M14 melanoma = tested on: M14 melanoma
HCT-15 colon = tested on: HCT-15 colon
CCRF-CEM leukemia = tested on: CCRF-CEM leukemia
HL-60(TB) leukemia = tested on: HL-60(TB) leukemia
CAKI-1 renal = tested on: CAKI-1 renal
RXF 393 renal = tested on: RXF 393 renal
TK-10 renal = tested on: TK-10 renal
NCI-H460 lung = tested on: NCI-H460 lung
MALME-3M melanoma = tested on: MALME-3M melanoma
SW-620 colon = tested on: SW-620 colon
786-0 renal = tested on: 786-0 renal
SK-OV-3 ovarian = tested on: SK-OV-3 ovarian
A498 renal = tested on: A498 renal
KM12 colon = tested on: KM12 colon
UO-31 renal = tested on: UO-31 renal
SK-MEL-28 melanoma = tested on: SK-MEL-28 melanoma
EKVX NSCLC = tested on: EKVX NSCLC
MOLT-4 leukemia = tested on: MOLT-4 leukemia
COLO 205 colon = tested on: COLO 205 colon
HOP-62 NSCLC = tested on: HOP-62 NSCLC
MCF7 breast = tested on: MCF7 breast
SF-539 CNS = tested on: SF-539 CNS
HCT-116 colon = tested on: HCT-116 colon
OVCAR-4 ovarian = tested on: OVCAR-4 ovarian
NCI-H23 lung = tested on: NCI-H23 lung
OVCAR-5 ovarian = tested on: OVCAR-5 ovarian
OVCAR-3 ovarian = tested on: OVCAR-3 ovarian
UACC-257 melanoma = tested on: UACC-257 melanoma
NCI-H226 lung = tested on: NCI-H226 lung
SNB-19 CNS = tested on: SNB-19 CNS
DU-145 prostate = tested on: DU-145 prostate
U251 CNS = tested on: U251 CNS
HCC-2998 colon = tested on: HCC-2998 colon
SN12C renal = tested on: SN12C renal
HOP-92 NSCLC = tested on: HOP-92 NSCLC
MDA-MB-231 breast = tested on: MDA-MB-231 breast
SK-MEL-5 melanoma = tested on: SK-MEL-5 melanoma
IGROV1 ovarian = tested on: IGROV1 ovarian
SK-MEL-2 melanoma = tested on: SK-MEL-2 melanoma
PC-3 prostate = tested on: PC-3 prostate
LOX IMVI melanoma = tested on: LOX IMVI melanoma
ACHN renal = tested on: ACHN renal
SNB-75 CNS = tested on: SNB-75 CNS
A549 NSCLC = tested on: A549 NSCLC
SF-268 CNS = tested on: SF-268 CNS
SR leukemia = tested on: SR leukemia
BT-549 breast = tested on: BT-549 breast
RPMI-8226 leukemia = tested on: RPMI-8226 leukemia

O=C1Nc2ccccc2/C1=C\c1c(-c2ccccc2)nc2ccccn12
4.69 µM: TGI (SK-OV-3 ovarian)
6.1 µM: TGI (SNB-75 CNS)
60 µM: TGI (A549 NSCLC)
6.47 µM: TGI (HL-60(TB) leukemia)
37.1 µM: TGI (TK-10 renal)
50.9 µM: TGI (BT-549 breast)
5.58 µM: TGI (COLO 205 colon)
7.65 µM: TGI (NCI-H522 lung)
> 100 µM: TGI (HS 578T breast) | TGI (T-47D breast) | TGI (UACC-62 melanoma) | TGI (OVCAR-8 ovarian) | TGI (HCT-15 colon) | TGI (CCRF-CEM leukemia) | TGI (CAKI-1 renal) | TGI (MALME-3M melanoma) | TGI (SW-620 colon) | TGI (A498 renal) | TGI (KM12 colon) | TGI (UO-31 renal) | TGI (SK-MEL-28 melanoma) | TGI (EKVX NSCLC) | TGI (MOLT-4 leukemia) | TGI (MCF7 breast) | TGI (OVCAR-4 ovarian) | TGI (NCI-H23 lung) | TGI (OVCAR-5 ovarian) | TGI (OVCAR-3 ovarian) | TGI (UACC-257 melanoma) | TGI (SNB-19 CNS) | TGI (DU-145 prostate) | TGI (SN12C renal) | TGI (MDA-MB-231 breast) | TGI (SK-MEL-5 melanoma) | TGI (PC-3 prostate) | TGI (LOX IMVI melanoma) | TGI (ACHN renal) | TGI (SF-268 CNS) | TGI (SR leukemia)
34.8 µM: TGI (HCC-2998 colon)
18.9 µM: TGI (SF-539 CNS)
inactive: GI50 (NCI-H522 lung) 1.83 µM | GI50 (HS 578T breast) 9.31 µM | GI50 (HT29 colon) 3.05 µM | GI50 (T-47D breast) 4.4 µM | GI50 (UACC-62 melanoma) 3.88 µM | GI50 (OVCAR-8 ovarian) 4.9 µM | GI50 (M14 melanoma) 2.48 µM | GI50 (HCT-15 colon) 3.6 µM | GI50 (CCRF-CEM leukemia) 2.57 µM | GI50 (HL-60(TB) leukemia) 2.59 µM | GI50 (CAKI-1 renal) 2.7 µM | GI50 (RXF 393 renal) 2.75 µM | GI50 (TK-10 renal) 5.05 µM | GI50 (NCI-H460 lung) 3.24 µM | GI50 (MALME-3M melanoma) 3.88 µM | GI50 (SW-620 colon) 3.02 µM | GI50 (786-0 renal) 5.98 µM | GI50 (SK-OV-3 ovarian) 1.95 µM | GI50 (A498 renal) 5.87 µM | GI50 (KM12 colon) 2.55 µM | GI50 (UO-31 renal) 1.95 µM | GI50 (SK-MEL-28 melanoma) 5.53 µM | GI50 (EKVX NSCLC) 3.1 µM | GI50 (MOLT-4 leukemia) 4.2 µM | GI50 (COLO 205 colon) 2.21 µM | GI50 (HOP-62 NSCLC) 2.7 µM | GI50 (MCF7 breast) 3.52 µM | GI50 (SF-539 CNS) 3.96 µM | GI50 (HCT-116 colon) 3.61 µM | GI50 (OVCAR-4 ovarian) 6.21 µM | GI50 (NCI-H23 lung) 3.77 µM | GI50 (OVCAR-5 ovarian) 4.39 µM | GI50 (OVCAR-3 ovarian) 4.26 µM | GI50 (UACC-257 melanoma) 8.96 µM | GI50 (NCI-H226 lung) 4.5 µM | GI50 (SNB-19 CNS) 4.93 µM | GI50 (DU-145 prostate) 4.46 µM | GI50 (U251 CNS) 3.97 µM | GI50 (HCC-2998 colon) 4.56 µM | GI50 (SN12C renal) 4.91 µM | GI50 (HOP-92 NSCLC) 3.98 µM | GI50 (MDA-MB-231 breast) 7.29 µM | GI50 (SK-MEL-5 melanoma) 2.83 µM | GI50 (IGROV1 ovarian) 2.59 µM | GI50 (SK-MEL-2 melanoma) 2.35 µM | GI50 (PC-3 prostate) 3.14 µM | GI50 (LOX IMVI melanoma) 4.34 µM | GI50 (ACHN renal) 4.45 µM | GI50 (SNB-75 CNS) 1.85 µM | GI50 (A549 NSCLC) 3.9 µM | GI50 (SF-268 CNS) 5.23 µM | GI50 (SR leukemia) 0.498 µM | GI50 (BT-549 breast) 3.97 µM | GI50 (RPMI-8226 leukemia) 2.67 µM
13.9 µM: TGI (HT29 colon)
12.9 µM: TGI (NCI-H460 lung)
21 µM: TGI (U251 CNS)
7.8 µM: TGI (M14 melanoma)
12.1 µM: TGI (RXF 393 renal)
20.2 µM: TGI (IGROV1 ovarian)
57.8 µM: TGI (NCI-H226 lung)
47 µM: TGI (HCT-116 colon)
6.97 µM: TGI (SK-MEL-2 melanoma)
81.5 µM: TGI (786-0 renal)
8.56 µM: TGI (RPMI-8226 leukemia)
15.5 µM: TGI (HOP-62 NSCLC)
50.4 µM: TGI (HOP-92 NSCLC)
